Laboratory results published in patent US20140213641A1, “POLYMERIC NANOPARTICLES FOR DRUG DELIVERY” (INSTITUT QUIMIC DE SARRIA, priority 2011, published 2014).
Like-named read-outs stand apart in the source and are kept apart here.

Key:
CGL1 = conditions: cells treated for few days, read-out: Paclitaxel metabolic assay (historical data) IC50; cited from earlier work
LN-229 cell line = assay: Clonogenic assay (soft agar colony formation); assay type: cell-based; conditions: Homo sapiens
Method: (§1) A clonogenic assay was carried out to observe the toxicity of decorated paclitaxel-loaded nanoparticles compared with that of paclitaxel and empty nanoparticles on glioma cell lines and determine IC50 values in a long term effect (2 to 3 weeks growth). Nanoparticles with or without a surface-modifying agent (SEQ ID#5) were formed according to the method of example 2, with or without inclusion of paclitaxel.
(§2) Three cells lines were used. The CGL-1 cell line (Oncodesign, Dijon, France) was isolated from the TG-1 tumour subcutaneously (SC) implanted in Nude rat. 14 days were allowed for colony formation. The human U-87 MG cell line (American Type Culture Collection) was initiated from a […] glioblastoma from a person. 21 days were allowed for colony formation. Finally, the LN-229 cell line (American Type Culture Collection) was established in 1979 from cells taken from a patient with right frontal parieto-occipital glioblastoma. 14-21 days were allowed for colony formation.
(§3) The formulations tested were as follows: nanoparticles (stock solution NaCl 0.9%); paclitaxel-loaded nanoparticles (3.33% paclitaxel by weight; stock solution NaCl 0.9%); and paclitaxel (stock solution DMSO 100%). All test substances diluted at 100 μM in their respective vehicle to obtain stock solutions. Five concentrations (1:5 or 1:3 dilution steps) were used in triplicate. Formulations were obtained by diluting stock solutions at 100 μM in their respective vehicle to obtain a series of five concentrations in 1:5 or 1:3 dilution steps. Each solution was then further diluted at 1:20 with RPMI 1640 before final dilution at 1:10 into soft agar.
(§4) Repetitions were carried out for GCL-1 at 2 nM, 8 nM, 40 nM, 200 nM and 1000 nM and for LN-229 at 1.2 nM, 3.7 nM, 11 nM, and 33 nM. At least 2 independent experiments were carried out with top concentrations and dilution steps changed when needed. Cells were incubated for 14 to 21 days with the different treatments.
(§5) Results are given in Table 4 and indicate the % survival from the initial 300 clones. Vehicle results not included (100% survival in all cases). The results are shown graphically in FIGS. 4, 5 and 6. Clonogenic tests are based on clones of cells and not cells alone.

CGL-1 cell line = assay: Clonogenic assay (soft agar colony formation); assay type: cell-based; conditions: 336 h, read-out: IC50 (concentration that inhibits 50% of clones); CGL1, experiment 3, serial dilutions 1:5, highest concentration 1000 nM, 14 days colony formation
Method: as §1, §2, §3, §4, §5

U-87 MG cell line = assay: Clonogenic assay (soft agar colony formation); assay type: cell-based; conditions: Homo sapiens
Method: as §1, §2, §3, §4, §5

U87-MG [1] = conditions: cells treated for few days, read-out: Paclitaxel metabolic assay (historical data) IC50; cited from earlier work
U87-MG [2] = conditions: read-out: literature IC50 values for paclitaxel alone; cited from earlier work
in vitro = conditions: human
Method: (§6) An ATP-lite assay was carried out over 48 to 72 hours in order to determine cytotoxicity of paclitaxel-loaded nanoparticles comprising a surface-modifying agent compared with that of paclitaxel and empty nanoparticles on healthy brain cell lines and determine IC50 values.
(§7) The formulations tested were as follows: vehicle, empty nanoparticles, decorated paclitaxel-loaded nanoparticles (3.33% paclitaxel by weight; decoration: SEQ ID #5) paclitaxel and etoposide (etoposide is described as having mild toxicity in treatment of brain cancer).
(§8) Three cell lines were tested. Normal human astrocytes (NHA; Lonza) are primary-derived cultures of adherent cells with limited number of divisions. Normal human […] (NHNP; primary cell line; Lonza) are neurosphere growing cells with high number of division that differentiate in adherent […] cells and neurons under specific conditions (laminin coated plates, induction with differentiation factors). Finally, immortalized human neural progenitors (RenCells; Millipore) are fetal brain cells transformed with c-myc oncogene.
(§9) Cells were incubated with treatment for 24 hours (astrocytes) and 72 hours (progenitor cell lines)

[3] = system: Immortalized human neural progenitors (ReNcells); conditions: 72 h, 50 μM
Method: as §6, §7, §8, §9

[4] = system: Normal human neural progenitors (NHNP); conditions: 72 h, 50 μM
Method: as §6, §7, §8, §9

Compound	IC50 (CGL1)	IC50 (LN-229 cell line; LN-229, read-out: IC50 (concentration that inhibits 50% of clones), LN229, experiment 4, serial dilutions 1:3, highest concentration 100 nM, 14-21 days colony formation)	IC50 (LN-229 cell line; LN-229, read-out: IC50 (concentration that inhibits 50% of clones), LN229, experiment 5, serial dilutions 1:3, highest concentration 100 nM, 14-21 days colony formation)	IC50 (CGL-1 cell line)	IC50 (U-87 MG cell line; 504 h, read-out: IC50 (concentration that inhibits 50% of clones), U87-MG, experiment 2, serial dilutions 1:5, highest concentration 500 nM, 21 days colony formation)	IC50 (U-87 MG cell line; 504 h, read-out: IC50 (concentration that inhibits 50% of clones), U87-MG, experiment 3, serial dilutions 1:5, highest concentration 500 nM, 21 days colony formation)	IC50 (U-87 MG cell line; U87-MG cells, test repeated, read-out: IC50, repeated test)	IC50 (U87-MG [1])	IC50 (U87-MG [2])	IC50 at 24 h (in vitro)	% survival [3]	% survival [4]
CC(=O)O[C@H]1C(=O)[C@@]2(C)[C@H]([C@H](OC(=O)c3ccccc3)[C@]3(O)C[C@H](OC(=O)[C@H](O)[C@@H](NC(=O)c4ccccc4)c4ccccc4)C(C)=C1C3(C)C)[C@]1(OC(C)=O)CO[C@@H]1C[C@@H]2O [Paclitaxel, paclitaxel]	> 100 nM	7.3 nM	21 nM	792 nM	2.6 nM	7.5 nM	4 to 20 nM	~10 nM	10 to 20 nM			
COc1cc([C@@H]2c3cc4c(cc3[C@@H](O[C@@H]3O[C@@H]5CO[C@@H](C)O[C@H]5[C@H](O)[C@H]3O)[C@H]3COC(=O)[C@H]23)OCO4)cc(OC)c1O [Etoposide, etoposide]										~50000 nM	3%	21%
